Publication PMC7108845, “An Alphaherpesvirus Exploits Antimicrobial β-Defensins To Initiate Respiratory Tract Infection” (Journal of Virology, 2020)

Tests used:
[1] = test system: EIV; type: cell-based, equine influenza virus
[2] = test system: EHV1 RacL11 ΔgM; type: cell-based, equine herpesvirus type 1
[3] = test system: EHV1 (isolate 03P37); type: cell-based, equine herpesvirus type 1
[4] = test system: equine influenza virus (A/equine/Kentucky/98, H3N8); type: cell-based
[5] = test system: equine CD172a+ monocytic cells; assay: CytoSelect cell migration (chemotaxis) assay; conditions: 0 to 10 μg/ml, 96-well Boyden chamber
[6] = test system: EHV1 particles binding to RK13 cells; type: cell-based, equine herpesvirus type 1
[7] = test system: EHV1; type: cell-based, equine herpesvirus type 1
[8] = test system: EHV1 RacL11 Δgp2; type: cell-based, equine herpesvirus type 1
[9] = test system: equine arteritis virus (08P178); type: cell-based
[10] = test system: equine CD3+ T lymphocytes; assay: CytoSelect cell migration (chemotaxis) assay; conditions: 0 to 10 μg/ml; 96-well Boyden chamber, 5-μm pores; RFU; three donor horses
[11] = test system: Actinobacillus equuli subsp. equuli (4005); assay: MIC assay, bacterial growth inhibition; type: cell-based; conditions: Gram-negative; Mueller-Hinton II broth, ~10^6 CFU/ml, 0 to 100 μg/ml eBD, 24 h, 37°C, 5% CO2; lowest concentration with no visible bacterial growth
Procedure: (§1) To ensure that eBD1, -2, and -3 are potent antimicrobial peptides, a MIC test was performed to determine inhibition of the growth of a number of Gram-positive and Gram-negative bacteria found in the equine respiratory tract by eBDs. The examined concentration range of eBDs ([…] to 100 μg/ml) was chosen based on the antimicrobially active concentration range of human BDs ([21][–][25]).
(§2) Clinical bacterial isolates were used in a MIC assay to investigate the sensitivity of bacterial pathogens from the equine respiratory tract to eBDs. The test organisms included the Gram-positive bacteria Streptococcus equi subsp. zooepidemicus (strain 4001), Streptococcus equi subsp. equi (strain 3830), Staphylococcus aureus (strain 3939), and Rhodococcus equi (strain 3851) and the Gram-negative bacteria Actinobacillus equuli subsp. equuli (strain 4005) and Bordetella bronchiseptica (strain 3033). All organisms were grown on Oxoid sheep blood agar plus plates (Thermo Fisher Scientific) overnight in a humidified incubator (5% CO2) at 37°C. Inocula were prepared by swabbing bacterial colonies from the plates, suspending them in PBS (turbidity equivalent to a 0.5 McFarland standard), and diluting this suspension 1:100 in Mueller-Hinton II (MH) broth (BD Biosciences, San Jose, CA, USA), achieving a final concentration of approximately 10^6 CFU/ml. eBDs were serially 2-fold diluted in MH broth at concentrations ranging from 200 μg/ml to 0.02 μg/ml and pipetted into 96-well microtiter plates (Greiner Bio, Kremsmünster, Austria). The inoculum was added to the eBD dilutions 1:1, and the bacteria were incubated in a humidified incubator (5% CO2) at 37°C for 24 h. MIC values were determined as the lowest concentration of eBD at which there was no visible bacterial growth.

[12] = test system: Rhodococcus equi (3851); assay: MIC assay, bacterial growth inhibition; type: cell-based; conditions: Gram-positive; Mueller-Hinton II broth, ~10^6 CFU/ml, 0 to 100 μg/ml eBD, 24 h, 37°C, 5% CO2; lowest concentration with no visible bacterial growth
Procedure: as §1, §2

[13] = test system: Staphylococcus aureus (3939); assay: MIC assay, bacterial growth inhibition; type: cell-based; conditions: Gram-positive; Mueller-Hinton II broth, ~10^6 CFU/ml, 0 to 100 μg/ml eBD, 24 h, 37°C, 5% CO2; lowest concentration with no visible bacterial growth
Procedure: as §1, §2

[14] = test system: Streptococcus equi subsp. zooepidemicus (4001); assay: MIC assay, bacterial growth inhibition; type: cell-based; conditions: Gram-positive; Mueller-Hinton II broth, ~10^6 CFU/ml, 0 to 100 μg/ml eBD, 24 h, 37°C, 5% CO2; lowest concentration with no visible bacterial growth
Procedure: as §1, §2

[15] = test system: Streptococcus equi subsp. equi (3830); assay: MIC assay, bacterial growth inhibition; type: cell-based; conditions: Gram-positive; Mueller-Hinton II broth, ~10^6 CFU/ml, 0 to 100 μg/ml eBD, 24 h, 37°C, 5% CO2; lowest concentration with no visible bacterial growth
Procedure: as §1, §2

[16] = test system: Bordetella bronchiseptica (3033); assay: MIC assay, bacterial growth inhibition; type: cell-based; conditions: Gram-negative; Mueller-Hinton II broth, ~10^6 CFU/ml, 0 to 100 μg/ml eBD, 24 h, 37°C, 5% CO2; lowest concentration with no visible bacterial growth
Procedure: as §1, §2

[17] = test system: EHV1 particles binding to EREC; type: cell-based, equine herpesvirus type 1
[18] = test system: EHV1 RacL11; type: cell-based, equine herpesvirus type 1
[19] = test system: equine polymorphonuclear (PMN) cells; assay: CytoSelect cell migration (chemotaxis) assay; conditions: 0 to 10 μg/ml; 96-well Boyden chamber, 5-μm pores; RFU; three donor horses

Molecule | EIV entry in EREC [1] | EIV infection of EREC [1] | EIV infectivity in EREC [1] | average EHV1 plaque diameter [3] | increase in EHV1 infection in RK13 cells (number of plaques and plaque diameter) [3] [fold] | protection of cells from subsequent EHV1 infection [3] | formation of EIV plaques in MDCK cells [4] | protection of cells from subsequent EIV infection [4] | chemotaxis of equine monocytic cells [5] | percentage of RK13 cells with bound EHV1 particles [6] | protection of cells from subsequent EAV infection [9] | concentration of maximal migration of equine T lymphocytes [10] [µg/mL] | MIC [11] [µg/mL] | MIC [12] [µg/mL] | MIC [13] [µg/mL] | MIC [14] [µg/mL] | MIC [15] [µg/mL] | MIC [16] [µg/mL] | number of EHV1 particles bound per EHV1-positive EREC [17] | percentage of EREC with bound EHV1 particles [17] | further results
MRILHFLLAFLIVFLLPVPGFTAGIETSFSCSQNGGFCISPKCLPGSKQIGTCILPGSKCCRKK (also: bicyclic or more (positions not given here)) [eBD2, chemically synthesized equine β-defensin, named according to its human homolog] | no effect on EIV entry | diminishing subsequent infection of EREC | did not alter EIV infectivity | doubling | 3.5 | failed to protect | decreased | failed to protect | failed to induce | 0.86% ± 0.97% | failed to protect | 1 | 25 | >100 | >100 | >100 | >100 | 100 | did not significantly differ | 17% ± 5% | infectivity of RacL11 ΔgM in RK13 cells [2]: diminished; virus particles bound per positive RK13 cell, relative to eBD1 or control pretreatment [6]: up to 2 fold; EHV1 infection of EREC [7]: not able to infect EREC more efficiently; infectivity of RacL11 Δgp2 in RK13 cells [8]: increase in infectivity; formation of EAV plaques in RK13 cells [9]: decreased; infectivity of parental RacL11 strain in RK13 cells [18]: enhanced
MRAPYFLLLTLCLFCCQMSSGVGYLTGLGHRSDHYICARSGGTCHFSSCPLFTKIEGTCYGGKAKCCL (also: bicyclic or more (positions not given here)) [eBD1, chemically synthesized equine β-defensin, named according to its human homolog] | no effect on EIV entry | – | did not alter EIV infectivity | – | – | failed to protect | – | failed to protect | failed to induce | 0.78% ± 0.76% | failed to protect | 1 | >100 | >100 | >100 | >100 | >100 | >100 | did not significantly differ | 17% ± 6% | concentration of maximal migration of equine PMN cells [19]: 1 ng/mL
Nc1nc(O)c2ncn(COC(CO)CO)c2n1 [ganciclovir, reference compound] | – | – | – | – | – | – | – | – | – | – | – | – | – | – | – | – | – | – | – | – | formation and spread of EHV1 plaques [3]: almost completely blocked
heparin [reference compound] | – | – | – | – | – | – | – | – | – | – | – | – | – | – | – | – | – | – | – | – | EHV1 final plaque diameter in RK13 cells [3]: did not alter; EHV1 plaque formation in RK13 cells [3]: inhibited
MRIHFLLFALLFLFLMPVPGNGGIINMLQKSYCKIRKGRCALLGCLPKEEQIGSCSVSGRKCCRKKK (also: bicyclic or more (positions not given here)) [eBD3, chemically synthesized equine β-defensin, named according to its human homolog] | no effect on EIV entry | diminishing subsequent infection of EREC | did not alter EIV infectivity | doubling | 3.5 | failed to protect | decreased | failed to protect | – | 1.26% ± 1.34% | failed to protect | 1 | 25 | 25 | >100 | >100 | 100 | 100 | doubled | 36% ± 8% | EHV1 infectivity [3]: no effect; increase in susceptibility of RK13 cells to EHV1 (number of plaques) [3]: 1.5 fold; EIV infection of MDCK cells [4]: almost completely preventing infection; EIV infectivity [4]: decreased; concentration of maximal migration of equine PMN cells [19]: 1 ng/mL; concentration of maximal migration of equine monocytic cells ([5]; 5-μm pores, RFU, three donor horses, P < 0.05): 1 µg/mL; virus particles bound per positive RK13 cell, relative to eBD1 or control pretreatment [6]: up to 2 fold; EHV1 infection of EREC [7]: not able to infect EREC more efficiently; EAV infectivity [9]: no effect; formation of EAV plaques in RK13 cells [9]: decreased
